Assay results published in patent publication US20200147037A1, “NEW TREATMENT OF BRAIN CANCER” (priority 2017, published 2020).

Legend:
glioblastoma = details: intracranial pump; WANG et al. 2018; cited from earlier work
[1] = test system: A549 highly metastatic human lung tumor; details: Paclitaxel 25 μM

| Compound | increase in survival (glioblastoma) [%] | % of embryo death [1] | Tumor weight [1] [mg] | reduction of brain metastases amount compared to controls [1] [%] |
| --- | --- | --- | --- | --- |
| CC(C)C[C@H](NC(=O)[C@H](Cc1ccccc1)NC(=O)c1cnccn1)B(O)O [Bortezomib] | 40 |  |  |  |
| CC(=O)O[C@H]1C(=O)[C@@]2(C)[C@H]([C@H](OC(=O)c3ccccc3)[C@]3(O)C[C@H](OC(=O)[C@H](O)[C@@H](NC(=O)c4ccccc4)c4ccccc4)C(C)=C1C3(C)C)[C@]1(OC(C)=O)CO[C@@H]1C[C@@H]2O [Paclitaxel, paclitaxel] |  | 24%, N = 21 | 20.558 ± 1.902 | 61 |
